Measured values taken from patent US12263172B2, “Toll-like receptor agonists for use in the treatment of hepatitis b” (priority 2019, dated 2025).

How the values were obtained:
HBV = experiment: anti-HBV activity in vivo in AAV/HBV mice; settings: 20 mg/kg
[1] = test system: cytokines and ISGs (ISG15, MX1, OAS1); experiment: Phase 1 single oral dose pharmacodynamics (serum cytokines, whole blood ISGs) in healthy adults; assay type: in vivo, human
Description: IFN-α was assessed by an enzyme-linked immunosorbent assay; 13 other cytokines (granulocyte colony stimulating factor [GCSF], granulocyte macrophage colony stimulating factor [GMCSF], IFN-γ, IFN-γ-induced protein 10 [IP-10], interleukin [IL] 1β, IL-1 receptor antagonist [IL-1 RA], IL-10, IL-12 subunit P40, IL-6, IL-8, macrophage inflammatory protein 1β [MIP-1β], monocyte chemotactic protein 1 [MCP-1], and tumour necrosis factor [TNF]) were analysed by the appropriate Luminex assays. ISG expression analysis was conducted for three genes, ISG15, MX1 and OAS1 using quantitative polymerase chain reaction. Descriptive statistics were used to summarise PD parameters over time, and relative fold-changes from baseline values were calculated. Serum levels of IFN-α were measured by ELISA. Serum levels of IP-10, IFN-γ, TNF-α, IL-12 (subunit P40), IL-6, IL-1β, IL-1RA, IL-18, MCP-1, MIP-1β, G-CSF, GM-CSF, IL-10, IL-15 were measured by Luminex xMAP technology. The LLOQ for IFN-α was determined at 12.5 pg/mL and at 25 pg/mL for all other cytokines measured. Fold changes for each of the cytokines were calculated compared to predose values or LLOQ-1 values if predose values were below LLOQ. IFN-stimulated gene (ISG) expression analysis was conducted for 3 genes, ISG15, MX1, and OAS1, using quantitative polymerase chain reaction (qPCR) on collected whole blood samples. For the ISGs, relative fold changes from baseline were calculated according to the delta delta Cycle threshold (Ct) method (2^[Delta Delta Ct]). Assessments were done for Part 1 predose and postdose: 1.5 hours, 6 hours, 12 hours (Day 1), 24 hours (day 2), 48 hours (Day 3), 96 hours (Day 5), follow-up Week 2. For the Part 2, assessments were done predose and post the first and fourth dose: 2 hours, 4 hours, 12 hours, 24 hours, 48 hours, 96 hours and one week follow-up; and post the second and third doses: 12 hours and 48 hours.

[2] = single dose 0.6 mg, 12 hours post dosing

## CCCCOc1nc(N)c2[nH]cc(Cc3ccc(CN4CCCC4)cc3)c2n1 [Compound 4]
HBV
  HBsAg seroconversion: in all animals
  HBsAg serum levels: undetectable
  time post-treatment reductions in HBsAg levels were sustained: up to 3 weeks
[1]; single dose
  number of the 14 cytokines evaluated that increased ≥2-fold versus baseline (IFN-α, IP-10, IL-1 RA, MCP-1, IL-6): 5
  time within which cytokine levels and ISG expression peaked: 12 to 24 h
[1]; single dose 0.2 mg
  induction of ISGs or cytokines: No relevant induction of ISGs or cytokines
[1]; single dose 0.2 mg fasted
  participants with ≥2 relative fold increase in ISG15 expression from baseline in the first 96 hours: 0 n (%)
  participants with ≥2 relative fold increase in MX1 expression from baseline in the first 96 hours: 1 (20.0%) n (%)
  participants with ≥2 relative fold increase in OAS1 expression from baseline in the first 96 hours: 0 n (%)
  subjects with ≥2-fold change from baseline in GCSF within 96 hours: 0 n (%)
  subjects with ≥2-fold change from baseline in GMCSF within 96 hours: 0 n (%)
  subjects with ≥2-fold change from baseline in IFN-α within 96 hours: 0 n (%)
  subjects with ≥2-fold change from baseline in IFN-γ within 96 hours: 0 n (%)
  subjects with ≥2-fold change from baseline in IL-1RA within 96 hours: 0 n (%)
  subjects with ≥2-fold change from baseline in IL-1β within 96 hours: 0 n (%)
  subjects with ≥2-fold change from baseline in IL-6 within 96 hours: 1 (20.0%) n (%)
  subjects with ≥2-fold change from baseline in IL-8 within 96 hours: 0 n (%)
  subjects with ≥2-fold change from baseline in IL-10 within 96 hours: 0 n (%)
  subjects with ≥2-fold change from baseline in IL-12 subunit P40 within 96 hours: 0 n (%)
  subjects with ≥2-fold change from baseline in IP-10 within 96 hours: 0 n (%)
  subjects with ≥2-fold change from baseline in MCP-1 within 96 hours: 0 n (%)
  subjects with ≥2-fold change from baseline in MIP-1β within 96 hours: 0 n (%)
  subjects with ≥2-fold change from baseline in TNF-α within 96 hours: 0 n (%)
[1]; single dose 0.6 mg
  treated subjects with ≥2-fold increase from baseline for all 3 ISGs within the first 96 hours: Five of 6
[1]; single dose 0.6 mg fasted
  participants with ≥2 relative fold increase in ISG15 expression from baseline in the first 96 hours: 5 (83.3%) n (%)
  participants with ≥2 relative fold increase in MX1 expression from baseline in the first 96 hours: 5 (83.3%) n (%)
  participants with ≥2 relative fold increase in OAS1 expression from baseline in the first 96 hours: 5 (83.3%) n (%)
  subjects with ≥2-fold change from baseline in GCSF within 96 hours: 1 (16.7%) n (%)
  subjects with ≥2-fold change from baseline in GMCSF within 96 hours: 0 n (%)
  subjects with ≥2-fold change from baseline in IFN-α within 96 hours: 0 n (%)
  subjects with ≥2-fold change from baseline in IFN-γ within 96 hours: 0 n (%)
  subjects with ≥2-fold change from baseline in IL-1RA within 96 hours: 0 n (%)
  subjects with ≥2-fold change from baseline in IL-1β within 96 hours: 0 n (%)
  subjects with ≥2-fold change from baseline in IL-6 within 96 hours: 0 n (%)
  subjects with ≥2-fold change from baseline in IL-8 within 96 hours: 0 n (%)
  subjects with ≥2-fold change from baseline in IL-10 within 96 hours: 0 n (%)
  subjects with ≥2-fold change from baseline in IL-12 subunit P40 within 96 hours: 0 n (%)
  subjects with ≥2-fold change from baseline in MIP-1β within 96 hours: 0 n (%)
  subjects with ≥2-fold change from baseline in TNF-α within 96 hours: 0 n (%)
[1]; [2]
  maximum concentration of IP-10: 1,322.0 pg/mL
  maximum concentration of MCP-1: 878.2 pg/mL
[1]; single dose 1.25 mg
  increased expression of cytokines and ISGs, fed versus fasted state: less frequently observed in the 1.25 mg fed state than in the fasted state
  treated subjects with ≥2-fold increase from baseline for all 3 ISGs within the first 96 hours: all treated subjects
[1]; single dose 1.25 mg fasted
  participants with ≥2 relative fold increase in ISG15 expression from baseline in the first 96 hours: 8 (100%) n (%)
  participants with ≥2 relative fold increase in MX1 expression from baseline in the first 96 hours: 8 (100%) n (%)
  participants with ≥2 relative fold increase in OAS1 expression from baseline in the first 96 hours: 8 (100%) n (%)
  subjects with IFN-α levels 100 pg/mL coinciding with flu-like AEs and low lymphocytes: 3 of 8
  subjects with ≥2-fold change from baseline in GCSF within 96 hours: 1 (12.5%) n (%)
  subjects with ≥2-fold change from baseline in GMCSF within 96 hours: 0 n (%)
  subjects with ≥2-fold change from baseline in IFN-γ within 96 hours: 2 (25.0%) n (%)
  subjects with ≥2-fold change from baseline in IL-1β within 96 hours: 0 n (%)
  subjects with ≥2-fold change from baseline in IL-6 within 96 hours: 1 (12.5%) n (%)
  subjects with ≥2-fold change from baseline in IL-8 within 96 hours: 0 n (%)
  subjects with ≥2-fold change from baseline in IL-10 within 96 hours: 0 n (%)
  subjects with ≥2-fold change from baseline in IL-12 subunit P40 within 96 hours: 0 n (%)
  subjects with ≥2-fold change from baseline in MIP-1β within 96 hours: 0 n (%)
  subjects with ≥2-fold change from baseline in TNF-α within 96 hours: 0 n (%)
  treated females with 2-fold increase in IFN-α: 2 of the 3
  treated male subjects with 2-fold increase in IFN-α: 2 out of 5
[1]; single dose 1.25 mg fasted, 4/8 subjects
  IFNα levels in subjects with increase, range: 63 to 533 pg/mL
[1]; single dose 1.25 mg fed
  increase in IFN-α in the fed state among the 3 subjects with increase in the fasted state: none showed an increase in IFN-α in the fed state
[1]; single dose 1.8 mg
  treated male subjects with ≥2-fold increase in IFN-α: 1 of the 5
  treated subjects with ≥2-fold increase from baseline for all 3 ISGs within the first 96 hours: all treated subjects
[1]; single dose 1.8 mg fasted
  participants with ≥2 relative fold increase in ISG15 expression from baseline in the first 96 hours: 6 (100%) n (%)
  participants with ≥2 relative fold increase in MX1 expression from baseline in the first 96 hours: 6 (100%) n (%)
  participants with ≥2 relative fold increase in OAS1 expression from baseline in the first 96 hours: 6 (100%) n (%)
  subjects with IFN-α levels 100 pg/mL coinciding with flu-like AEs and low lymphocytes: 2 of 6
  subjects with ≥2-fold change from baseline in GCSF within 96 hours: 0 n (%)
  subjects with ≥2-fold change from baseline in GMCSF within 96 hours: 0 n (%)
  subjects with ≥2-fold change from baseline in IFN-γ within 96 hours: 2 (33.3%) n (%)
  subjects with ≥2-fold change from baseline in IL-1β within 96 hours: 0 n (%)
  subjects with ≥2-fold change from baseline in IL-6 within 96 hours: 1 (16.7%) n (%)
  subjects with ≥2-fold change from baseline in IL-8 within 96 hours: 0 n (%)
  subjects with ≥2-fold change from baseline in IL-10 within 96 hours: 0 n (%)
  subjects with ≥2-fold change from baseline in IL-12 subunit P40 within 96 hours: 0 n (%)
  subjects with ≥2-fold change from baseline in MIP-1β within 96 hours: 0 n (%)
  subjects with ≥2-fold change from baseline in TNF-α within 96 hours: 0 n (%)
[1]; single dose, post-administration
  time within which cytokine levels and ISG expression returned to baseline: 48 to 96 h
[1]; two highest fasted dose groups
  time of return to baseline after dosing: approximately 96 hours
